These results are taken from patent US20180282279A1, “Pantothenamide Analogues” (Radboud Universitair Medisch Centrum, priority 2014, published 2018).

Assay [1] relates to Staphylococcus epidermidis. Nature of the assay: Bacterial growth assay and MIC determination, S. epidermidis. Conditions: Staphylococcus epidermidis. Format: cell-based. The protocol: (§1) Strains of Escherichia coli, Staphylococcus aureus and Staphylococcus epidermidis, were grown overnight in 1% Bacto tryptone medium (BD, Sparks, Md.). Streptococcus pyogenes was grown overnight in Bacto Todd Hewitt Broth medium (BD, Sparks, Md.). Cultures were then diluted 1:1,000 in fresh assay medium supplemented with or without 20% fetal bovine serum (FBS; HyClone, Celbio, Logan, Utah) and added to 96-well sterile enzyme-linked immunosorbent assay (ELISA) plates (100 μl per well). The compounds to be tested were diluted in the medium without serum and added to the bacteria (100 μl per well). Plates were incubated at 37° C., and bacterial growth was monitored over time by reading the optical density at 490 nm using a microplate reader (model 450; Bio-Rad Laboratories Inc., Hercules, Calif.). Streptococcus pneumoniae strains were grown to mid-log phase (OD620 of 0.3) and stored in 15% glycerol at […] till further use. Minimal inhibitory concentration (MIC) of antibiotics was determined according to standard procedures. Bacteria were diluted 10-fold in Mueller-Hinton medium (BD, Sparks, Md.) and added to 96-well sterile ELISA plates (150 μl per well). The compounds to be tested were diluted in the medium without serum and added to the bacteria (150 μl per well). Plates were incubated overnight at 37° C. in 5% CO2. The MIC was defined as the lowest concentration of compound at which no growth was visible with the naked eye.

The next assay concerns Streptococcus pneumoniae. Nature of the assay: MIC determination, S. pneumoniae. Format: cell-based. To be noted: Streptococcus pneumoniae; S. pneumoniae, serum −; read-out: MIC. The procedure: Streptococcus pneumoniae strains were grown to mid-log phase (OD620 of 0.3) and stored in 15% glycerol at […] till further use. Minimal inhibitory concentration (MIC) of antibiotics was determined according to standard procedures. Bacteria were diluted 10-fold in Mueller-Hinton medium (BD, Sparks, Md.) and added to 96-well sterile ELISA plates (150 μl per well). The compounds to be tested were diluted in the medium without serum and added to the bacteria (150 μl per well). Plates were incubated overnight at 37° C. in 5% CO2. The MIC was defined as the lowest concentration of compound at which no growth was visible with the naked eye.

Assay [2] relates to transgenic P. falciparum NF54 strain that expresses a luciferase reporter gene, in Anopheles stephensi mosquitoes. Description: Standard Membrane Feeding Assay (SMFA), luciferase reporter. It is filed as in vivo, Plasmodium falciparum. Conditions: for IC50: indirect mode of the SMFA. The protocol: To assess the effect of a reduction in gametocyte viability and or capacity to form a gamete on actual transmission of the parasites, Standard Membrane Feeding Assays (SMFA) were performed using a transgenic P. falciparum NF54 strain that expresses a luciferase reporter gene from a hsp70 promoter. Parasite cultures showing ˜3% mature gametocytes were checked for the ability to show exflagellation after addition of xanthurenic acid to a final concentration of 40 μM. Infectivity of cultures showing positive exflagellation was tested in a ‘prefeed’ experiment as described previously (Antimicrob Agents Chemother, 2012. 56(7): p. 3544-8). Cultures showing development of retorts and ookinetes in the mosquito midgut were selected for testing of compounds. In the indirect mode of the assay, gametocytes were pre-incubated with compound prior to mosquito feeding. To this end, 40 μl compound diluted in parasite culture medium was added to 360 μl of parasite culture and incubated for 24 hrs at 37° C. in Eppendorf tubes (0.1% DMSO final concentration). Hereafter, 300 μl was added to 180 μl of packed red blood cells and centrifuged for 20 seconds at 10,000 g. After carefully aspirating the supernatant, 200 μl of human serum type A was added to the pellet. Finally, 300 μl was immediately injected into an individual membrane-covered minifeeder, where 50 Anopheles stephensi mosquitoes of 1-to-5-days old were allowed to feed for 10 minutes and non-fed mosquitoes were removed from the cage. Eight days after feeding, 20 mosquitoes were sacrificed and parasite luciferase activity was measured as described previously (Stone, J Infect Dis. 2014 in press). For the direct SMFA, 300 μl parasite culture was added to 180 μl red blood cells, centrifuged for 20 seconds at 10,000 g and the supernatant was carefully aspirated. Meanwhile, 10 μl of compound diluted in incomplete medium was added to 490 μl human serum type A (0.1% DMSO final). 200 μl of this compound containing human serum was added to the pellet, which was subsequently used for the SMFA as described above. For dose response analyses, compounds were diluted in DMSO with subsequent dilution in culture medium to a final DMSO concentration of 0.1%. Controls included vehicle (0.1% DMSO) and DHA at its approximate IC90 (10 μM). Data were analyzed by logistic regression using the formula: Y=Bottom+(Top−Bottom)/(1+10̂((Log IC50−X)*HillSlope)) and a least squares method to find the best fit.

For assay [3], the system named is Plasmodium berghei strain 676c11 (PbGFP-Luc). Description: In vivo rodent malaria model. Conditions: female Wistar rats, 100 mg/kg orally three times a day, day 5-8. An excerpt:
Female mice (C57 Black 6, 9-10 weeks of age at the start of the experiment) and female rats (Wistar, 150-200 grams at the beginning of the experiment) were housed under standard conditions and experiments were approved by the institutional ethical committee on animal care and experimentation of Radboud University Medical Centre (Nijmegen).
To test our compounds in an in vivo malaria model we used a well described rodent malaria model (Zuckerman and Yoeli, J Infect Dis. 94, 225-36). First, donor mice were infected by 0.2 ml cryopreserved infected blood stocks containing the transgenic Plasmodium berghei strain 676c11 (PbGFP-Luc). After four days the mice were sacrificed and their blood was collected. The parasitemia in the blood from the mice was calculated as percentage of infected red blood cells (RBC) by Giemsa-stained blood smears. Infected blood was diluted to 5×10^7 parasites per ml and 0.2 ml was i.p. injected in rats (inoculation of 10′ parasites per rat). Treatment with chloroquine (6 mg/kg), CXP18.6-017 (100 mg/kg) and CXP18.6-052 (100 mg/kg) started 5 days post inoculation and where given orally three times a day until day eight. From day 5 blood samples were collected and parasitemia was determined by analysis of Giemsa-stained blood smears. The infection and treatment regimes were well tolerated by the animals.

Assay [4] relates to S. aureus (SA), S. epidermidis (SE), S. pyogenes (SP), S. pneumoniae (SPn). Nature of the assay: MIC for most sensitive bacterial species (panel). To be noted: Table 1, no species named, read-out: MIC (μg/ml) for most sensitive bacterial species. Format: cell-based. The protocol:
as §1

The mark [5] stands for this setting: Table 1, most sensitive species S. epidermidis (SE), read-out: MIC (μg/ml) for most sensitive bacterial species.
The mark [6] stands for this setting: 24 hrs pre-incubation, read-out: IC50 on the average luciferase intensity.
[7] abbreviates: read-out: IC50 on parasite prevalence (percentage of infected mosquitoes).

In brackets after ≈: the same amount, converted by molar mass. Read-outs that look alike come from different tables or passages of the source. A value given as a limit tells only on which side of the number the result lay.

`CC(C)(CO)[C@@H](O)C(=O)NCCNC(=O)CCc1ccccc1` [CXP18.6-006]: the MIC in assay [1] (setting [5]) amounted to 16 µg/mL (≈ 49.6 µM).
As to `CC(C)(CO)[C@@H](O)C(=O)NCCNC(=O)CCc1ccccc1F` [CXP18.6-017], the MIC in assay [1] (S. epidermidis, serum −, read-out: MIC) was 32 µg/mL (≈ 94 µM); in assay [1] (setting [5]), 2 µg/mL (≈ 5.88 µM); in the assay on Streptococcus pneumoniae it was > 32 µg/mL. Also, in assay [2] (gametocytes pre-exposed prior to mosquito feeding), the “inhibitory effect in the indirect mode compared with the direct mode” value is reported as “stronger”. Moreover, the “luciferase intensity in the direct mode of the assay” value in assay [2] (in comparison with the DMSO control) is recorded as “reduced luciferase intensity”. In addition, the IC50 in assay [2] (setting [6]) was 20 nM; in assay [2] (setting [7]), 178 nM. Besides, the parasitemia result in assay [3] is on record as “reduced parasitemia with similar kinetics as found for chloroquine”.
Turning to `Cc1ccc(CCC(=O)NCCNC(=O)[C@H](O)C(C)(C)CO)cc1` [CXP18.6-026], in assay [4] (tested for SA, SE, SP and SPn), the MIC was > 32 µg/mL. In addition, the IC50 in assay [2] (setting [6]) is 107 nM; in assay [2] (setting [7]), 370 nM.
With `CC(C)(CO)[C@@H](O)C(=O)NCCNC(=O)CCc1cccnc1` [CXP18.6-052], the MIC in assay [4] (Streptococcus pneumoniae, marked *: not tested for S. pneumoniae) is > 32 µg/mL. Further, the parasitemia entry in assay [3] is “significant, albeit partial, reduction of parasitemia”.
